# According to patent US8785501B2 (Duquesne University of the Holy Spirit, priority 2009, dated 2014):
# Test system: mammary estrogen-regulated genes (lactoferrin and progesterone receptor)
# Assay: Expression of estrogen-regulated genes in mammary tissue of ovariectomized FVB/n mice
# Type: in vivo, mouse
# Conditions: FVB/n OVX mice, n=4, data not shown; versus control (vehicle) and melatonin alone
# From the text: Previous studies with melatonin or tamoxifen alone were done in MMTV/neu mice. MMTV/neu mice spontaneously develop HER2/neu mammary cancer beginning at 5 months of […] and have a maximal incidence of >90% after 14 months of age. In this mouse model, tamoxifen and melatonin alone can influence mammary tumor development, growth and/or metastatic progression.
structure (smiles),measurement,value
CC/C(=C(\c1ccccc1)c1ccc(OCCN(C)C)cc1)c1ccccc1 [tamoxifen],progesterone receptor (PR) RNA levels in mammary tissue,significantly different than the control
